Reference: PubChem BioAssay AID588805 (The Scripps Research Institute Molecular Screening Center, 2011)
Calls of active or inactive are those of the source. The rule behind the calls is not given here.

How the values were obtained:
Test in all cases: ABHD10 inhibitor ABPP-SILAC selectivity profile – cell-based, LC-MS/MS, selectivity assay for PME-1 inhibitor project, late-stage follow-up (AID 588805)
Fam108a = conditions: serine hydrolase panel, hits give low values
Lactb = conditions: serine hydrolase panel, hits give low values
Esd = conditions: serine hydrolase panel, hits give low values
Rbbp9 = conditions: serine hydrolase panel, hits give low values
Parl = conditions: serine hydrolase panel, hits give low values
Acot9 = conditions: serine hydrolase panel, hits give low values
Pme1 = conditions: serine hydrolase panel, hits give low values
[1] = molecular target: Prolyl endopeptidase (Mus musculus) (UniProt Q9QUR6); conditions: serine hydrolase panel, Prep, hits give low values
Ctsa = conditions: serine hydrolase panel, hits give low values
Bat5 = conditions: serine hydrolase panel, hits give low values
Abhd12 = conditions: serine hydrolase panel, hits give low values
Apeh = conditions: serine hydrolase panel, hits give low values
Dpp9 = conditions: serine hydrolase panel, hits give low values
Ddhd2 = conditions: serine hydrolase panel, hits give low values
Fasn = conditions: serine hydrolase panel, hits give low values
Htra2 = conditions: serine hydrolase panel, hits give low values
Pafah1b3 = conditions: serine hydrolase panel, hits give low values
[2] = molecular target: Diacylglycerol lipase-beta (Mus musculus) (UniProt Q91WC9); conditions: serine hydrolase panel, Daglb, hits give low values
Lyplal1 = conditions: serine hydrolase panel, hits give low values
Pla2g6 = conditions: serine hydrolase panel, hits give low values
Faah = conditions: serine hydrolase panel, hits give low values
Sec23ip = conditions: serine hydrolase panel, hits give low values
Dpp7 = conditions: serine hydrolase panel, hits give low values
[3] = molecular target: Platelet-activating factor acetylhydrolase 2, cytoplasmic (Mus musculus) (UniProt Q8VDG7); conditions: serine hydrolase panel, Pafah2, hits give low values
Fam108b1 = conditions: serine hydrolase panel, hits give low values
Acot7 = conditions: serine hydrolase panel, hits give low values
Dpp8 = conditions: serine hydrolase panel, hits give low values
Pnpla8 = conditions: serine hydrolase panel, hits give low values
Serhl = conditions: serine hydrolase panel, hits give low values
Nceh1 = conditions: serine hydrolase panel, hits give low values
[4] = molecular target: Acyl-protein thioesterase 1 (Mus musculus) (UniProt P97823); conditions: serine hydrolase panel, Lypla1, hits give low values
Ache = conditions: serine hydrolase panel, hits give low values
Prcp = conditions: serine hydrolase panel, hits give low values
Acot2 = conditions: serine hydrolase panel, hits give low values
Lypla2 = conditions: serine hydrolase panel, hits give low values
Iah1 = conditions: serine hydrolase panel, hits give low values
Abhd13 = conditions: serine hydrolase panel, hits give low values
[5] = molecular target: Monoacylglycerol lipase ABHD6 (Mus musculus) (UniProt Q8R2Y0); conditions: serine hydrolase panel, hits give low values
[6] = molecular target: Palmitoyl-protein thioesterase ABHD10, mitochondrial (Mus musculus) (UniProt Q6PE15); conditions: serine hydrolase panel, hits give low values
Fam108c1 = conditions: serine hydrolase panel, hits give low values
Pnpla7 = conditions: serine hydrolase panel, hits give low values
Pla2g15 = conditions: serine hydrolase panel, hits give low values
Ppt2 = conditions: serine hydrolase panel, hits give low values
Pnpla6 = conditions: serine hydrolase panel, hits give low values
Pafah1b2 = conditions: serine hydrolase panel, hits give low values
Lipe = conditions: serine hydrolase panel, hits give low values
Qrsl1 = conditions: serine hydrolase panel, hits give low values
Pgap1 = conditions: serine hydrolase panel, hits give low values
Abhd11 = conditions: serine hydrolase panel, hits give low values
Prepl = conditions: serine hydrolase panel, hits give low values

Diacylglycerol lipase-beta (Mus musculus), sequence (Q91WC9 whole entry, looked up): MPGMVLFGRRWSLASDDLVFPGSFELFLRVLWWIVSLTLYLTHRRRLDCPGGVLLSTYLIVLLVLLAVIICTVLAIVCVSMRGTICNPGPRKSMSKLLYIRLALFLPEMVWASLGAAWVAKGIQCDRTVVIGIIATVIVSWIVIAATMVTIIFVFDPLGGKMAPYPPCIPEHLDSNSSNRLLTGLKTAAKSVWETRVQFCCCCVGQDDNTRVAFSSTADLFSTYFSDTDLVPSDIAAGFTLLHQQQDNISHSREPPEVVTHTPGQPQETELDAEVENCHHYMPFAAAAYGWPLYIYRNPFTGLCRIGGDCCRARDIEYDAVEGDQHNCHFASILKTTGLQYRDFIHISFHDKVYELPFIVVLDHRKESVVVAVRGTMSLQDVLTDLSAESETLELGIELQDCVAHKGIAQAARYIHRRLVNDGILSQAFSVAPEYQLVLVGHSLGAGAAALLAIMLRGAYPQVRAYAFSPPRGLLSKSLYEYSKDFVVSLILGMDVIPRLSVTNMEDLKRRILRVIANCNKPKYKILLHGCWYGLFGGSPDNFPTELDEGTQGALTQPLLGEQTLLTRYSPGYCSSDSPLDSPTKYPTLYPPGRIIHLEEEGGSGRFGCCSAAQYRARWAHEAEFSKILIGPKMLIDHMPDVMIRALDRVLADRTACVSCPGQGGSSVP
Monoacylglycerol lipase ABHD6 (Mus musculus), sequence (Q8R2Y0 whole entry, looked up): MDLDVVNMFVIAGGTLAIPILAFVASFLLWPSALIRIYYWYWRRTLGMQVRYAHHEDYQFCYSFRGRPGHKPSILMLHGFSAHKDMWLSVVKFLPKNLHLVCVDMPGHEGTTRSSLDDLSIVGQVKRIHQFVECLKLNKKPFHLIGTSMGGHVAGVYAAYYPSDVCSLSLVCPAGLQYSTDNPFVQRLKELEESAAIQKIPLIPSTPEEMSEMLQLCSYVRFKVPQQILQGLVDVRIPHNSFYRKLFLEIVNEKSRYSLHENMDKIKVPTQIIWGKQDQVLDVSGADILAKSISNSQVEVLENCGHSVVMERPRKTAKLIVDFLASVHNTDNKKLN
Palmitoyl-protein thioesterase ABHD10, mitochondrial (Mus musculus), sequence (Q6PE15 whole entry, looked up): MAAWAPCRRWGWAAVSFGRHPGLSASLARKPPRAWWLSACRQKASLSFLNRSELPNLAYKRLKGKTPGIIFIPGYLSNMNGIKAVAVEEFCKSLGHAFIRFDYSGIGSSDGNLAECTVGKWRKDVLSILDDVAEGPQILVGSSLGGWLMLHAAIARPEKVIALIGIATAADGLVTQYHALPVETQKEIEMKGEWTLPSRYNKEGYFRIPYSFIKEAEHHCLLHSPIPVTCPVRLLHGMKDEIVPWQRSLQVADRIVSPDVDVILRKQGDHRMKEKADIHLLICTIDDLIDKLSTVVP
Acyl-protein thioesterase 1 (Mus musculus), sequence (P97823 whole entry, looked up): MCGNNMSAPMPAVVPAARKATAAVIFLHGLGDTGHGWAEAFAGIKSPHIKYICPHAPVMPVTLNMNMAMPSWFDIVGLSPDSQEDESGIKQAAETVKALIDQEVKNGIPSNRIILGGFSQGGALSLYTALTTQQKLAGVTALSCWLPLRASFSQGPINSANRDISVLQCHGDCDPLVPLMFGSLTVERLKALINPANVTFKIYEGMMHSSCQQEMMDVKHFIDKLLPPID
Platelet-activating factor acetylhydrolase 2, cytoplasmic (Mus musculus), sequence (Q8VDG7 whole entry, looked up): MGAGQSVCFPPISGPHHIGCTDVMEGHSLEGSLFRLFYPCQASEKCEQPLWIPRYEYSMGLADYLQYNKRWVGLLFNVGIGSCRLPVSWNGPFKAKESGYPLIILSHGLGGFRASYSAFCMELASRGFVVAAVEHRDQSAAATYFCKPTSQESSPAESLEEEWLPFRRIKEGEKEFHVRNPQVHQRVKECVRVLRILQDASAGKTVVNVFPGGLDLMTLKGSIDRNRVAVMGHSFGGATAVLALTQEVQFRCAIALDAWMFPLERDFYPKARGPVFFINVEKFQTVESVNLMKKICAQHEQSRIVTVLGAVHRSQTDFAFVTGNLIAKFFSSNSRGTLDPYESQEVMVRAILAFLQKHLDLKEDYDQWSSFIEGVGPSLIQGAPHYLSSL
Prolyl endopeptidase (Mus musculus), sequence (Q9QUR6 whole entry, looked up): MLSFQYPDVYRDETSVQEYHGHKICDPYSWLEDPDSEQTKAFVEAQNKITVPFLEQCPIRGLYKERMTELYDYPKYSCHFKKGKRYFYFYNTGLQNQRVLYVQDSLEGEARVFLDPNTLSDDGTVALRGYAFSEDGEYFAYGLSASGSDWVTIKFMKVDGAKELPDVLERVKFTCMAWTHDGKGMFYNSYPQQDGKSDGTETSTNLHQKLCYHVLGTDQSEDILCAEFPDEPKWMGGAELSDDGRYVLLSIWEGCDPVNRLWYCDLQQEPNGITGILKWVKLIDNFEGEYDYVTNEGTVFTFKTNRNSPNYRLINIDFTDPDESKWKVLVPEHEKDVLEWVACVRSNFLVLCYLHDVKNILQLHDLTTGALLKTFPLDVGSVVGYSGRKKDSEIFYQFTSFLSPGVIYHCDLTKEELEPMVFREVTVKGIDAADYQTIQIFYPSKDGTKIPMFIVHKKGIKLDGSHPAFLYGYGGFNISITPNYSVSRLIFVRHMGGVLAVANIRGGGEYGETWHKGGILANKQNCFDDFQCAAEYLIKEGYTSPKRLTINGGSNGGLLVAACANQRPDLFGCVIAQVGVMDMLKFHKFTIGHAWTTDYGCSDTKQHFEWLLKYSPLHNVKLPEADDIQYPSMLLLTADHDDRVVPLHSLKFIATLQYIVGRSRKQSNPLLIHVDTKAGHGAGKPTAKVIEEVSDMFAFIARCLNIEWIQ

CC[C@@]1(c2ccc(C)cc2)C(=O)N(C(=O)OC(C)C)N1C(=O)OC(C)C
SILAC ratio (treated/control) (Fam108a): 1.16 (inactive) | SILAC ratio (treated/control) (Lactb): 0.85 (inactive) | SILAC ratio (treated/control) (Esd): 1.04 (inactive) | SILAC ratio (treated/control) (Rbbp9): 1.07 (inactive) | SILAC ratio (treated/control) (Parl): 0.96 (inactive) | SILAC ratio (treated/control) (Acot9): 1.1 (inactive) | SILAC ratio (treated/control) (Pme1): 1.06 (inactive) | SILAC ratio (treated/control) [1]: 1.01 (inactive) | SILAC ratio (treated/control) (Ctsa): 0.81 (inactive) | SILAC ratio (treated/control) (Bat5): 1.02 (inactive) | SILAC ratio (treated/control) (Abhd12): 0.9 (inactive) | SILAC ratio (treated/control) (Apeh): 1.07 (inactive) | SILAC ratio (treated/control) (Dpp9): 1.08 (inactive) | SILAC ratio (treated/control) (Ddhd2): 0.99 (inactive) | SILAC ratio (treated/control) (Fasn): 1.1 (inactive) | SILAC ratio (treated/control) (Htra2): 0.98 (inactive) | SILAC ratio (treated/control) (Pafah1b3): 1.06 (inactive) | SILAC ratio (treated/control) [2]: 0.96 (inactive) | SILAC ratio (treated/control) (Lyplal1): 1.06 (inactive) | SILAC ratio (treated/control) (Pla2g6): 1.06 (inactive) | SILAC ratio (treated/control) (Faah): 0.94 (inactive) | SILAC ratio (treated/control) (Sec23ip): 1.17 (inactive) | SILAC ratio (treated/control) (Dpp7): 0.97 (inactive) | SILAC ratio (treated/control) [3]: 1.06 (inactive) | SILAC ratio (treated/control) (Fam108b1): 1.05 (inactive) | SILAC ratio (treated/control) (Acot7): 1.05 (inactive) | SILAC ratio (treated/control) (Dpp8): 1.48 (inactive) | SILAC ratio (treated/control) (Pnpla8): 0.97 (inactive) | SILAC ratio (treated/control) (Serhl): 0.9 (inactive) | SILAC ratio (treated/control) (Nceh1): 1.03 (inactive) | SILAC ratio (treated/control) [4]: 1.14 (inactive) | SILAC ratio (treated/control) (Ache): 0.9 (inactive) | SILAC ratio (treated/control) (Prcp): 0.94 (inactive) | SILAC ratio (treated/control) (Acot2): 1 (inactive) | SILAC ratio (treated/control) (Lypla2): 1.07 (inactive) | SILAC ratio (treated/control) (Iah1): 0.95 (inactive) | SILAC ratio (treated/control) (Abhd13): 0.84 (inactive) | SILAC ratio (treated/control) [5]: 0.87 (inactive) | SILAC ratio (treated/control) [6]: 0.02 | SILAC ratio (treated/control) (Fam108c1): 0.93 (inactive) | SILAC ratio (treated/control) (Pnpla7): 1.01 (inactive) | SILAC ratio (treated/control) (Pla2g15): 1 (inactive) | SILAC ratio (treated/control) (Ppt2): 1.04 (inactive) | SILAC ratio (treated/control) (Pnpla6): 1.32 (inactive) | SILAC ratio (treated/control) (Pafah1b2): 1.06 (inactive) | SILAC ratio (treated/control) (Lipe): 1.13 (inactive) | SILAC ratio (treated/control) (Qrsl1): 0.96 (inactive) | SILAC ratio (treated/control) (Pgap1): 0.92 (inactive) | SILAC ratio (treated/control) (Abhd11): 1 (inactive) | SILAC ratio (treated/control) (Prepl): 1.05 (inactive)
